{"source": "paper PMC8708940", "about": "“Crossing of the Cystic Barriers of Toxoplasma gondii by the Fluorescent Coumarin Tetra-Cyclopeptide” (Molecules, 2021)", "key": {"[1]": {"tested_on": "T. gondii RH strain tachyzoite", "assay_type": "cell-based, Toxoplasma gondii", "conditions": "intracellular growth of RH strain tachyzoite in HFF", "source_text": "The parasite strains used in this study are the following: the T. gondii type I RH strain that has lost the ability to complete cyst conversion, the T. gondii type II Prugniaud (Pru) strain that is capable of robust bradyzoite differentiation, the T. gondii type II Pru-Δhxgprt-A7 strain that expresses green fluorescent protein (GFP), the Pru-Δku80 strain [36, 37], and the RH Tg hdac3 T99A strain (previously obtained in our laboratory).\n(§1) All T. gondii strains were maintained by serial passage in an HFF (Human Foreskin Fibroblasts) monolayer under tachyzoite growth conditions in Dulbecco’s modified Eagle medium (DMEM; Invitrogen) supplemented with 10% (vol/vol) fetal bovine serum (FBS; Invitrogen), 4 mM glutamine, 500 U/mL penicillin, 250 µg/mL streptomycin at 37 °C and 25 mM Hepes buffer (Invitrogen) in 5% CO2."}, "human cells HFF": {"tested_on": "human cells HFF", "assay_type": "cell-based", "conditions": "human foreskin fibroblasts", "method": "as §1"}, "[2]": {"tested_on": "Ex vivo T. gondii cysts (PRU strain)", "assay": "Cyst and bradyzoite penetration observed by fluorescence microscopy", "assay_type": "cell-based, Toxoplasma gondii", "conditions": "37 °C, exposure time 100 ms", "source_text": "To focus on the ability of the cyclic tetrapeptide moiety to transport compounds through the cyst wall, we began our investigation by monitoring the transport of the poorly cell-permeable fluorochrome 3 (Figure 2) by optical microscopy.\nTo ensure that the fluorescent compound was incorporated to the parasite cell, bradyzoites were released from treated cysts (Figure 3b).\nCysts were isolated from the brains of mice chronically infected with the Pru-Δhxgprt-A7 or the Pru strains for at least 6 weeks, either using the Percoll gradient method as described previously or directly harvesting the cysts using a 10-μL pipet for the dye experimentation in order to prevent deterioration of the cyst wall for the permeability studies.\nImages were acquired with a Axioplan 2 fluorescence microscope (Carl Zeiss Microimaging, Thornwood, NY, USA) and processed with the ZEN software (Zeiss)."}}}
{"smiles": "CCN(CC)c1ccc2cc(-n3cc(C[C@]4(C)NC(=O)[C@H](CCCCCC(=O)[C@@H](C)O)NC(=O)[C@H]5CCCN5C(=O)[C@H](Cc5ccccc5)NC4=O)nn3)c(=O)oc2c1", "note": "[compound 1]", "values": [{"measurement": "EC50", "setting": "[1]", "value": "43 ± 2.2", "unit": "nM"}, {"measurement": "EC50", "setting": "human cells HFF", "value": "280 ± 20", "unit": "nM"}, {"measurement": "Fluorescence of isolated cysts (penetration and accumulation in the cyst)", "setting": "[2]; 200 nM to 3.7 µM, 3, 22 and 96 h", "value": "increasing fluorescence was observed"}, {"measurement": "Labeling of bradyzoites released from treated cysts", "setting": "[2]; 3.7 µM for 3 h, bradyzoites released from the cyst", "value": "clearly show labeling of these bradyzoites"}]}
{"smiles": "C=CCC[C@@H]1NC(=O)[C@H]2CCCN2C(=O)[C@H](Cc2ccccc2)NC(=O)[C@](C)(Cc2cn(-c3cc4ccc(N(CC)CC)cc4oc3=O)nn2)NC1=O", "note": "[compound 2]", "values": [{"measurement": "Fluorescent labeling of isolated cysts (cyst penetration)", "setting": "[2]; isolated ex vivo cysts, 1 µM, 24 h, PBS washing", "value": "labeled them with a high intensity"}]}
